System: Saccharomyces cerevisiae wild type strain BY4743
Test: AF1 yeast metabolite analysis by GC-MS and LC-MS
Type: cell-based
Conditions: for Fold Change, NacetylLglutamate: detected metabolite NacetylLglutamate; for Fold Change, NacetylLornithine: detected metabolite NacetylLornithine; for Fold Change, nicotinic acid: detected metabolite nicotinic acid; for Fold Change, nopaline: detected metabolite nopaline; for Fold Change, oleic acid: detected metabolite oleic acid; for Fold Change, ornithine: detected metabolite ornithine; for Fold Change, phenylalanine: detected metabolite phenylalanine; for Fold Change, phosphoenolpyruvate: detected metabolite phosphoenolpyruvate; for Fold Change, pipecolic acid: detected metabolite pipecolic acid; for Fold Change, proline: detected metabolite proline; for Fold Change, pyridoxine: detected metabolite pyridoxine; for Fold Change, selenoDLmethionine: detected metabolite selenoDLmethionine; for Fold Change, serine: detected metabolite serine; for Fold Change, sugar-phosphate: detected metabolite sugar-phosphate; for Fold Change, tetradecanoic acid: detected metabolite tetradecanoic acid; for Fold Change, threonine/homoserin: detected metabolite threonine/homoserin; for Fold Change, thymine: detected metabolite thymine; for Fold Change, tryptophan: detected metabolite tryptophan; for Fold Change, tyrosine: detected metabolite tyrosine; for Fold Change, urocanic acid: detected metabolite urocanic acid; for Fold Change, valine: detected metabolite valine; for Fold Change, zeatin: detected metabolite zeatin

Question: What does the source list for `CC[C@@H]([C@H](C)O)n1ncn(-c2ccc(N3CCN(c4ccc(OC[C@@H]5CO[C@@](Cn6cncn6)(c6ccc(F)cc6F)C5)cc4)CC3)cc2)c1=O` [Posaconazole]?
Answer: Fold Change of alanine (GC): 1.035; Fold Change of asparagine (GC): 0.145; Fold Change of aspartic acid (GC): −0.071; Fold Change of campesterol (GC): 0; Fold Change of desmosterol (GC): 0; Fold Change of disaccaride1 (GC): 0.04733; Fold Change of disaccaride2 (GC): 0.313; Fold Change of disaccaride3 (GC): 0.3407; Fold Change of ergosterol (GC): 0.808; Fold Change of fucosterol (GC): 6.722; Fold Change of glutamine (GC): 0.6439; Fold Change of glycanopyrose (GC): 1.594; Fold Change of glycerol (GC): 0.1873; Fold Change of glycine (GC): 0.08267; Fold Change of hexadecanoic acid (GC): −0.01867; Fold Change of iso citric acid (GC): 0.4; Fold Change of isoleucine (GC): 0.1023; Fold Change of lanosterol (GC): 7.464; Fold Change of leucine (GC): 0.334; Fold Change of lysine (GC): 0.1586; Fold Change of malic acid (GC): 0.2942; Fold Change of biotin (LC): 0; Fold Change of folic acid (LC): 0; Fold Change, NacetylDglucosamine (detected metabolite NacetylDglucosamine, platform nLC): 0; Fold Change, NacetylLglucosamine (detected metabolite NacetylLglucosamine, platform pLC): 0; Fold Change, NacetylLglutamate (platform nLC): −0.07165; Fold Change, NacetylLglutamate (platform pLC): 0; Fold Change, NacetylLornithine (platform nLC): 0; Fold Change, NacetylLornithine (platform pLC): 0.1338; Fold Change, TMS mevalonic acid lactone (detected metabolite TMS mevalonic acid lactone, platform GC): −0.3118; Fold Change, mevalonic acid lactone (detected metabolite mevalonic acid lactone, platform GC): 0.5555; Fold Change, mevalonic lactone (detected metabolite mevalonic lactone, platform pLC): −0.08368; Fold Change, niacinamide (detected metabolite niacinamide, platform pLC): 0; Fold Change, nicotinic acid (platform nLC): 1.421; Fold Change, nicotinic acid (platform pLC): −0.8142; Fold Change, nopaline (platform nLC): 0.7554; Fold Change, nopaline (platform pLC): 0; Fold Change, octadecanoic acid (detected metabolite octadecanoic acid, platform GC): 0.321; Fold Change, oleic acid (platform GC): −0.5057; Fold Change, oleic acid (platform nLC): 0.5606; Fold Change, ornithine2 (detected metabolite ornithine2, platform GC): −0.1383; Fold Change, ornithine3 (detected metabolite ornithine3, platform GC): 0.041; Fold Change, ornithine (platform nLC): 2.314; Fold Change, ornithine (platform pLC): 0.4314; Fold Change, orotic acid (detected metabolite orotic acid, platform nLC): 0; Fold Change, palmiteliadic acid (detected metabolite palmiteliadic acid, platform GC): −0.2453; Fold Change, palmitic acid (detected metabolite palmitic acid, platform nLC): 0.1518; Fold Change, phenylalanine (platform GC): 0.06069; Fold Change, phenylalanine (platform nLC): −0.03702; Fold Change, phenylalanine (platform pLC): −0.1585; Fold Change, phenylpyruvic acid (detected metabolite phenylpyruvic acid, platform nLC): 0; Fold Change, phosphate (detected metabolite phosphate, platform GC): −0.1833; Fold Change, phosphoenolpyruvate (platform LC): 0; Fold Change, phosphoenolpyruvate (platform nLC): 0; Fold Change, pinitol (detected metabolite pinitol, platform nLC): 0; Fold Change, pipecolic acid (platform nLC): 0.1806; Fold Change, pipecolic acid (platform pLC): 0.3444; Fold Change, progesterone (detected metabolite progesterone, platform pLC): 0; Fold Change, proline (platform LC): 0.3157; Fold Change, proline (platform nLC): 0.3147; Fold Change, pyridoxine (platform nLC): −0.1015; Fold Change, pyridoxine (platform pLC): −0.239; Fold Change, pyrimidine (detected metabolite pyrimidine, platform GC): 0.159; Fold Change, retinoic acid (detected metabolite retinoic acid, platform nLC): 0; Fold Change, riboflavin (detected metabolite riboflavin, platform pLC): 0; Fold Change, salicylic/HObenzoic (detected metabolite salicylic/HObenzoic, platform nLC): 0; Fold Change, selenoDLmethionine (platform nLC): −0.6722; Fold Change, selenoDLmethionine (platform pLC): −0.7083; Fold Change, serine (platform nLC): 0.152; Fold Change, serine (platform pLC): 0.2417; Fold Change, shikimic acid (detected metabolite shikimic acid, platform nLC): 0; Fold Change, sinapinic acid (detected metabolite sinapinic acid, platform nLC): 0; Fold Change, sorbitol/mannitol (detected metabolite sorbitol/mannitol, platform nLC): 0.009121; Fold Change, squalene (detected metabolite squalene, platform GC): 0.07431; Fold Change, succinic (detected metabolite succinic, platform nLC): −0.06141; Fold Change, sucrose (detected metabolite sucrose, platform nLC): 0.1847; Fold Change, sugar-phosphate (platform nLC): −0.04543; Fold Change, sugar-phosphate (platform pLC): 0; Fold Change (detected metabolite sugar?, platform GC): 0.6923; Fold Change, tetradecanoic acid (platform GC): −0.214; Fold Change, tetradecanoic acid (platform nLC): 1.029; Fold Change, thiamine (detected metabolite thiamine, platform pLC): 0; Fold Change, threonine2 (detected metabolite threonine2, platform GC): 0.457; Fold Change, threonine3 (detected metabolite threonine3, platform GC): 0.225; Fold Change, threonine/homoserin (platform nLC): 0.04034; Fold Change, threonine/homoserin (platform pLC): 0.1437; Fold Change, thymine (platform nLC): 0; Fold Change, thymine (platform pLC): 0; Fold Change, tms glutamine3 (detected metabolite tms glutamine3, platform GC): 0.6709; Fold Change, tms lysine4 (detected metabolite tms lysine4, platform GC): 0.05667; Fold Change, tms tyrosine2 (detected metabolite tms tyrosine2, platform GC): 1.228; Fold Change, tms tyrosine3 (detected metabolite tms tyrosine3, platform GC): 0.1911; Fold Change, tryptophan (platform nLC): 4.676; Fold Change, tryptophan (platform pLC): 0; Fold Change, tyrosine (platform nLC): 0.0282; Fold Change, tyrosine (platform pLC): 0.1008; Fold Change, uracil (detected metabolite uracil, platform nLC): −0.2779; Fold Change, uric acid (detected metabolite uric acid, platform pLC): 0; Fold Change, uridine (detected metabolite uridine, platform nLC): 0.02855; Fold Change, urocanic acid (platform nLC): 0; Fold Change, urocanic acid (platform pLC): 0; Fold Change, valine (platform GC): 0.345; Fold Change, valine (platform nLC): 0.0195; Fold Change, xanthosine(diH2O) (detected metabolite xanthosine(diH2O), platform pLC): 0; Fold Change, xanthosineDiH2O (detected metabolite xanthosineDiH2O, platform nLC): 0; Fold Change, zeatin (platform nLC): 0; Fold Change, zeatin (platform pLC): 0; Fold Change of 2-ketobutyric acid (nLC): −0.9992; Fold Change of 2-ketoglutaric (nLC): 11.33; Fold Change of 3-indolylacetonitri (nLC): −0.9998; Fold Change of 4-methylcatechol (nLC): 0; Fold Change of 4aminobutyrate/dimg (nLC): −0.008939; Fold Change of 5hydroxyLtryptophan (nLC): 0; Fold Change of 6-benzylaminopurine (nLC): 0; Fold Change of DLaminoadipic acid (nLC): −0.9935; Fold Change of abscisic acid (nLC): 0; Fold Change of aconitic acid (nLC): 1.874; Fold Change of adenine (nLC): 0; Fold Change of adenosine (nLC): 128.3; Fold Change of alanine (nLC): 0.1091; Fold Change of allantoic acid (nLC): 0.3321; Fold Change of allantoin (nLC): 5.97; Fold Change of anthranilic acid (nLC): 0; Fold Change of arginine (nLC): 0.1707; Fold Change of argininosuccinate (nLC): 318.3; Fold Change of asparagine (nLC): 0.006865; Fold Change of aspartic (nLC): 0.305; Fold Change of benzoic acid (nLC): 0; Fold Change of biotin (nLC): −0.9992; Fold Change of caffeic acid (nLC): −0.49; Fold Change of catechol (nLC): 0; Fold Change of cinnamic acid (nLC): 0; Fold Change of citricanoic/itaconi (nLC): 0; Fold Change of citrulline (nLC): 1160; Fold Change of coumaric acid (nLC): 0; Fold Change of cytidine (nLC): −0.9986; Fold Change of cytosine (nLC): 0; Fold Change of decanoic acid (nLC): 0.1263; Fold Change of diaminopimelic acid (nLC): 0; Fold Change of dihydrofolic acid (nLC): 0; Fold Change of estrone (nLC): 0; Fold Change of farnesol (nLC): 0; Fold Change of folic acid (nLC): 0; Fold Change of fumaric/3m2oxobutan (nLC): −0.9997; Fold Change of gallic acid (nLC): 0.4414; Fold Change of gibberellic (nLC): 0; Fold Change of glucosamine6PO4 (nLC): −0.9951; Fold Change of glutamic/acetylseri (nLC): 0.3222; Fold Change of glutamine/lysine (nLC): 0.09814; Fold Change of guanine (nLC): 0; Fold Change of guanosine (nLC): −0.993; Fold Change of histidine (nLC): 0; Fold Change of homogentisic/uric (nLC): 0; Fold Change of hydrocortisone (nLC): 0; Fold Change of hypoxanthine (nLC): 0.1751; Fold Change of indole3pyruvic acid (nLC): 0; Fold Change of inostol/glucos/sorb (nLC): −0.493; Fold Change of isocitric/citric/qu (nLC): 1.711; Fold Change of jasmonic acid (nLC): 0; Fold Change of kinetin (nLC): 0; Fold Change of lactic acid (nLC): 0.5987; Fold Change of lauric acid (nLC): 0.9833; Fold Change of leucine/isoleucine/ (nLC): 0.03158; Fold Change of luteolin (nLC): 0; Fold Change of malic acid (nLC): 0.3101; Fold Change of malonic acid (nLC): 0; Fold Change of menthol* (nLC): 0.08121; Fold Change of methionine (nLC): 0; Fold Change of 4-aminobenzoic acid (pLC): 0; Fold Change of 4-methylcatechol (pLC): 0; Fold Change of 4ambutyrate/dimglyc (pLC): 31.37; Fold Change of 5hydroxyLtryptophan (pLC): 0; Fold Change of 6benzylaminopurine (pLC): 0; Fold Change of DL-aminoadipic acid (pLC): 1.685; Fold Change of abscisic acid (pLC): 0; Fold Change of adenine (pLC): −0.0145; Fold Change of adenosine (pLC): 0; Fold Change of alanine/sarcosine (pLC): 0.1013; Fold Change of allantoic acid (pLC): 0; Fold Change of anthranilic acid (pLC): 0; Fold Change of arginine (pLC): 0.03383; Fold Change of argininosuccinate (pLC): 0; Fold Change of asparagine (pLC): 0.4302; Fold Change of aspartic acid (pLC): 0.3626; Fold Change of caffeine (pLC): 0; Fold Change of citric acid TME (pLC): 0; Fold Change of citrulline (pLC): 0.1011; Fold Change of cytidine (pLC): 0; Fold Change of cytosine (pLC): 1135; Fold Change of diaminopimelic acid (pLC): 0; Fold Change of dihydrofolic acid (pLC): 0; Fold Change of dipicolinic acid (pLC): 0; Fold Change of glucosamine (pLC): 0; Fold Change of glucosamine6PO4 (pLC): 0; Fold Change of glutamate (pLC): 0.3769; Fold Change of glutamine/lysine (pLC): 0.303; Fold Change of glutathione (pLC): 0.0101; Fold Change of guanosine (pLC): 0.04655; Fold Change of histidine (pLC): 0; Fold Change of hydrocortisone (pLC): 0; Fold Change of hypoxanthine (pLC): 0.135; Fold Change of itaconic acid dimes (pLC): 0; Fold Change of kinetin (pLC): 0; Fold Change of leucine/isoleucine/ (pLC): 0.04937; Fold Change of mannitol (pLC): 0.3919; Fold Change of methionine (pLC): −0.3997

Source: patent US20040018501A1, “Methods and systems for analyzing complex biological systems” (priority 2001, published 2004)
